Like-named read-outs stand apart in the source and are kept apart here.
Tests used:
[1] = test system: healthy male volunteers, leg immobilization; test: Phase 1 placebo-controlled study in healthy volunteers with single limb immobilization; assay type: in vivo, human; set-up: Change from baseline in muscle strength, mean: unit not given beside the values
Procedure: In a prior clinical trial in healthy volunteers, Compound I was administered at dose of 100 mg twice daily for 28 days in healthy volunteers during and after a single limb immobilization (see NCT01524406). The study was conducted to evaluate the impact of Compound I on the recovery of muscle atrophy from leg immobilization, and improvements in cross section area (CSA) and muscle strength parameters expected in patients treated with study drug compared to those given placebo.
This phase 1, randomized, parallel group, placebo-controlled study was conducted at 2 centers in the United States. Fifty participants were planned for enrollment, 25 per group; participants could be replaced upon sponsor approval.
Screening was conducted 28 days before study start; eligibility was reviewed again at prespecified times during the study. Ambulatory, non-smoking, healthy male volunteers 30 to 55 years of age with a Body Mass Index (BMI) from 18 to 30 kg/m2 were recruited for the study. Key exclusion criteria included abnormal laboratory values at screening, a recent history of body weight fluctuations, positive urine drug screens, drug dependency or illicit drug use, professional sport participation within 30 days of screening, donation of whole blood within 90 days of dosing, and donation of plasma within 30 days of dosing. Concomitant medications within 14 days of dosing were not allowed unless approved by the sponsor. Those who had enrolled in another clinical trial within 90 days or had previously received Compound II were not allowed to participate.
Participants were randomly assigned 1:1 to receive either Compound II (100 mg BID) or matching placebo for 28 days using a computer generated randomization schedule provided by the sponsor. The principal investigator, study center staff, and participants were blinded to treatment; the protocol was amended so that sponsor personnel were not blinded. This change was made to allow investigation of observations concerning adherence to the protocol, discussed further in the pharmacodynamic results. Compound II and placebo were provided as capsules identical in appearance, taken orally with 240 ml of water prior to meals. Study drug was administered at the study site on Days 1 (PM dose), 6 (AM dose), 13 (PM dose), and 14, 15, 16, 29 (AM doses). At all other times study drug was self-administered just before breakfast and dinner. Dates and times were recorded in a diary, with compliance determined from the diaries and capsule counts. Study drug supplies were packaged according to the randomization codes by a contract research organization. Each dispensed bottle was labeled with the randomization number. Individual capsules were re-dispensed from these bottles by the study site staff, maintaining the blind. The total study duration for each subject was 42 days. Participants stayed overnight from Day 1 and Days 13 to 16.
Standardized meals, beverages and snacks were provided during the domicile periods. On Day 1, participants were leg-immobilized using a knee brace with […] on the left leg to allow driving. Walking crutches were provided to prevent weight bearing on the immobilized leg. An accelerometer was issued at screening and was used to count the number of steps per day. Participants were to walk 4000 to 6000 steps each day for the duration of the leg immobilization period, and recorded accelerometer readings each evening before bedtime. The brace was removed on Day 14, and participants resumed normal physical activity gradually from Days 16 to 29. After stopping study drug on Day 29, participants were to resume regular daily activity gradually for another 2 weeks. Consumption of prescribed medications or over the counter products was prohibited from 14 days prior to dosing and throughout the study, with the exception of the treatment of an adverse event. Participants were not to consume alcohol or caffeine containing food and beverages 3 days before each study visit and domicile periods. […]

[2] = Stability of solid state forms (storage, drying), XRPD; assay type: physicochemical; conditions: for XRPD after static storage: 40° C./75% RH for 10 days; for XRPD after ambient storage: 24 hours, 48 hours, 7 days, or 10 days
Procedure: Samples were assessed for stability under ambient or static storage conditions of 25° C./[…] and 40° C./75% RH for 7 or 10 days. The samples were then re-analyzed by XRPD. Subsequent XRPD analysis results for the crystalline forms are described below: […]

[3] = Gravimetric Vapor Sorption (GVS); assay type: physicochemical; conditions: 25° C., w/w
Procedure: Sorption isotherms were obtained using a SMS DVS Intrinsic moisture sorption analyzer, controlled by DVS Intrinsic Control software. The sample temperature was maintained at 25° C. by the instrument controls. The humidity was controlled by mixing streams of dry and wet nitrogen, with a total flow rate of 200 ml/min. The relative humidity was measured by a calibrated Rotronic probe (dynamic range of 1.0-100% RH), located near the sample. The weight change, (mass relaxation) of the sample as a function of % RH was constantly monitored by a microbalance (accuracy ±0.005 mg).
Typically, 5-30 mg of sample was placed in a tared mesh stainless steel basket under ambient conditions. The sample was loaded and unloaded at 40% RH and 25° C. (typical room conditions). A moisture sorption isotherm was performed as outlined below (2 scans per complete cycle). The standard isotherm was performed at 25° C. at 10% RH intervals over a 0-90% RH range. Typically, a double cycle (4 scans) was carried out. Data analysis was carried out within Microsoft Excel using the DVS Analysis Suite.

[4] = XRPD re-analysis after GVS isotherm; assay type: physicochemical; conditions: after isotherm at 90% RH and 25° C.
Procedure: The samples were recovered after completion of the isotherm experiment at 90% RH and 25° C. and re-analyzed by XRPD.

[5] = test system: VLCAD deficient cell line FB833; conditions: FB833 cells; WO18093839; cited from earlier work
[6] = test system: mice; conditions: cited from earlier work; for oxidative muscle fibers (and mitochondrial biogenesis) / physical performance / running endurance: combined with exercise
[7] = listed as amorphous Compound II
[8] = listed as crystalline Pattern 9 of Compound II
[9] = listed as crystalline Form 2 of Compound II
[10] = listed as crystalline Form 3 of Compound II

Cc1cc(OC/C=C(/c2ccc(F)cc2)c2ccc(C#CCN3CCOCC3)cc2)ccc1OCC(=O)[O-].[Na+] [Compound II, sodium (E)-2-(4-((3-(4-fluorophenyl)-3-(4-(3-morpholinoprop-1-yn-1-yl)phenyl)allyl)oxy)-2-methylphenoxy)acetate]
participants discontinued due to an adverse event of elevated CK ([1]; 100 mg BID): 8.3% | Change from baseline in muscle strength, mean ([1]; Day 14, 100 mg BID): −5.86 | Change from baseline in muscle strength, mean ([1]; Day 21, 100 mg BID): 32.82 | Change from baseline in muscle strength, mean ([1]; Day 29, 100 mg BID): 25.58 | Change from baseline in muscle strength, mean ([1]; Day 42, 100 mg BID): 37.96 | increase from baseline in PDK4, ANGPTL4 and SLC25A34 expression ([1]; muscle biopsies, from Day 14): up to 3.5 fold

Cc1cc(OC/C=C(/c2ccc(F)cc2)c2ccc(C#CCN3CCOCC3)cc2)ccc1OCC(=O)[O-].[Na+] [Pattern 5, sodium (E)-2-(4-((3-(4-fluorophenyl)-3-(4-(3-morpholinoprop-1-yn-1-yl)phenyl)allyl)oxy)-2-methylphenoxy)acetate]
stability of the solid form [2]: unstable

Cc1cc(OC/C=C(/c2ccc(F)cc2)c2ccc(C#CCN3CCOCC3)cc2)ccc1OCC(=O)[O-].[Na+] [Pattern 8, sodium (E)-2-(4-((3-(4-fluorophenyl)-3-(4-(3-morpholinoprop-1-yn-1-yl)phenyl)allyl)oxy)-2-methylphenoxy)acetate]
form change on drying [2]: converts to Form 1

Cc1cc(OC/C=C(/c2ccc(F)cc2)c2ccc(C#CCN3CCOCC3)cc2)ccc1OCC(=O)[O-].[Na+] [amorphous, sodium (E)-2-(4-((3-(4-fluorophenyl)-3-(4-(3-morpholinoprop-1-yn-1-yl)phenyl)allyl)oxy)-2-methylphenoxy)acetate]
XRPD after static storage [2, 7]: unchanged | XRPD after static storage ([2]; listed as amorphous solid form): no change | XRPD after ambient storage [2, 7]: unchanged | XRPD after ambient storage ([2]; listed as amorphous solid form): no change

Cc1cc(OC/C=C(/c2ccc(F)cc2)c2ccc(C#CCN3CCOCC3)cc2)ccc1OCC(=O)[O-].[Na+] [Form 5, sodium (E)-2-(4-((3-(4-fluorophenyl)-3-(4-(3-morpholinoprop-1-yn-1-yl)phenyl)allyl)oxy)-2-methylphenoxy)acetate]
Reversible Water Uptake between 0-90% RH [3]: ~11% | Solid State Form After GVS (XRPD) [4]: Form 1 | Solid State Form After GVS (XRPD) ([4]; listed as crystalline Form 5 of Compound II): converts to Form 1 | form change on drying [2]: converts to Form 1

Cc1cc(OC/C=C(/c2ccc(F)cc2)c2ccc(C#CCN3CCOCC3)cc2)ccc1OCC(=O)[O-].[Na+] [Pattern 9, sodium (E)-2-(4-((3-(4-fluorophenyl)-3-(4-(3-morpholinoprop-1-yn-1-yl)phenyl)allyl)oxy)-2-methylphenoxy)acetate]
Reversible Water Uptake between 0-90% RH [3]: ~27% | Reversible Water Uptake between 0-90% RH [3, 8]: ~27% | Solid State Form After GVS (XRPD) [4]: Unchanged (Pattern 9) | Solid State Form After GVS (XRPD) [4, 8]: unchanged

Cc1cc(SCc2sc(-c3ccc(C(F)(F)F)cc3)nc2C)ccc1OCC(=O)O [GW501516, 2-[2-Methyl-4-[[[4-methyl-2-[4-(trifluoromethyl)phenyl]-5-thiazolyl]methyl]thio]phenoxy]acetic acid]
VLCAD enzyme activity [5]: increase | energy substrate usage ([6]; 8 weeks): clear shift in energy substrate usage from glucose to fatty acid oxidation | oxidative muscle fibers (and mitochondrial biogenesis) ([6]; listed as GW1516): synergistically induced | physical performance / running endurance ([6]; listed as GW1516): enhanced | oxidative muscle fibers (and mitochondrial biogenesis) [6]: increase | physical performance / running endurance [6]: enhance

Cc1cc(SCc2sc(-c3ccc(C(F)(F)F)c(F)c3)nc2C)ccc1OCC(=O)O [GW0742, [4-[[[2-[3-Fluoro-4-(trifluoromethyl)phenyl]-4-methyl-5-thiazolyl]methyl]thio]-2-methylphenoxy]acetic acid]
VLCAD enzyme activity [5]: increase

CCCc1c(OCCCOc2ccc(OCC(=O)O)cc2)ccc(C(C)=O)c1O [L-165,0411, [4-[3-(4-Acetyl-3-hydroxy-2-propylphenoxy)propoxy]phenoxy]acetic acid]
VLCAD enzyme activity [5]: increase

Cc1cc(OC/C=C(/c2ccc(F)cc2)c2ccc(C#CCN3CCOCC3)cc2)ccc1OCC(=O)[O-].[Na+] [Form 2, sodium (E)-2-(4-((3-(4-fluorophenyl)-3-(4-(3-morpholinoprop-1-yn-1-yl)phenyl)allyl)oxy)-2-methylphenoxy)acetate]
Reversible Water Uptake between 0-90% RH [3]: ~25% | Reversible Water Uptake between 0-90% RH [3, 9]: ~25% | Solid State Form After GVS (XRPD) [4]: Unchanged (Form 2) | Solid State Form After GVS (XRPD) [4, 9]: unchanged | XRPD form after storage ([2]; 25° C./97% RH/7 days): Unchanged (Form 2) | XRPD form after storage ([2]; 25° C./97% RH/7 days, listed as crystalline Form 2 of Compound II): unchanged | XRPD form after storage ([2]; 40° C./75% RH/7 days): Unchanged (Form 2) | XRPD form after storage ([2]; 40° C./75% RH/7 days, listed as crystalline Form 2 of Compound II): unchanged

Cc1cc(OC/C=C(/c2ccc(F)cc2)c2ccc(C#CCN3CCOCC3)cc2)ccc1OCC(=O)[O-].[Na+] [Form 3, sodium (E)-2-(4-((3-(4-fluorophenyl)-3-(4-(3-morpholinoprop-1-yn-1-yl)phenyl)allyl)oxy)-2-methylphenoxy)acetate]
Reversible Water Uptake between 0-90% RH [3]: ~9.0% | Reversible Water Uptake between 0-90% RH [3, 10]: ~9.0% | Solid State Form After GVS (XRPD) [4]: Form 1 | Solid State Form After GVS (XRPD) [4, 10]: converts to Form 1 | XRPD form after storage ([2]; 40° C./75% RH/7 days): Form 1 | XRPD form after storage ([2]; 40° C./75% RH/7 days, listed as crystalline Form 3 of Compound II): converts to Form 1 | form change on drying [2]: converts to Form 1 | form change on standing ([2]; standing in ambient conditions): converts to Form 1

Source: patent US11931365B2, “Use of PPAR-delta agonists in the treatment of disease” (Reneo Pharmaceuticals, Inc., priority 2022, dated 2024)
